Assay results from ChEMBL document CHEMBL4420076, “Amylin and calcitonin receptor agonist” (2017).
Numbered stars: 1 amine (or outer) side, 2 acyl side, 3 side chain; on linkers, the order of the positions; unused ones are H or OH. Peptide text beside a SMILES is read from it. * marks the point of attachment. C20 diacid = O=C(O)CCCCCCCCCCCCCCCCCCC(=O)*; C16 diacid = O=C(O)CCCCCCCCCCCCCCC(=O)*; γGlu = O=C(O)[C@H](CCC(=O)[*:2])N[*:1]

Experiments:
Rattus norvegicus [1] = test: Reduction in food intake in Sprague-Dawley rat at 3 nmol/kg measured 0 to 24 hrs post dose relative to control; type: functional; set-up: scale not given: the % may be the effect or the level left
Rattus norvegicus [2] = test: Reduction in food intake in Sprague-Dawley rat at 3 nmol/kg measured 24 to 48 hrs post dose relative to control; type: functional; set-up: scale not given: the % may be the effect or the level left
[3] = target: T1, Amylin receptor AMY3; CALCR/RAMP3 (Homo sapiens, UniProt O60896+P30988); test: Agonist activity at human amylin receptor expressed in BHK570 cells co-expressing RAMP3 assessed as increase in intracellular cAMP concentration incubated for 3 hrs in absence of albumin by CRE luciferase reporter gene assay; type: functional, cell-based
T1 sequence (P30988 whole entry): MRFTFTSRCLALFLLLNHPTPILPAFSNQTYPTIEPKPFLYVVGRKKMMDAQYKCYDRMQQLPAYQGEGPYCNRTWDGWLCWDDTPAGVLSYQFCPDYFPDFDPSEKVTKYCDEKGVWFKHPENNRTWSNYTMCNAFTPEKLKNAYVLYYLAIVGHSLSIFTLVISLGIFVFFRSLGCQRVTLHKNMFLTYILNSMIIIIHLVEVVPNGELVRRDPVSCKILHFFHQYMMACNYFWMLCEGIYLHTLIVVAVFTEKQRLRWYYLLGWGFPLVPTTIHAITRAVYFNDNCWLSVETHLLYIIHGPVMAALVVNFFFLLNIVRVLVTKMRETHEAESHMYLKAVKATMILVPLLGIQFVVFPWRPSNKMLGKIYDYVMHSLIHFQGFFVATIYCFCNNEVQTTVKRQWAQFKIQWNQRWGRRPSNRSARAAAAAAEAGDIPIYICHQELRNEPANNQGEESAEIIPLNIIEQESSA
T1 sequence (O60896 whole entry): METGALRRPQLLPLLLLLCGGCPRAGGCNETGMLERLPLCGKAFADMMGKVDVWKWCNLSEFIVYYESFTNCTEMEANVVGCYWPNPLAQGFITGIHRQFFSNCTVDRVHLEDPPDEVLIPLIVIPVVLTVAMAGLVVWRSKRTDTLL

Calcitonin receptor [4] = target: T2, Calcitonin receptor (Homo sapiens, UniProt P30988); test: Agonist activity at human calcitonin receptor expressed in BHK570 cells assessed as increase in intracellular cAMP concentration incubated for 3 hrs in absence of albumin by CRE luciferase reporter gene assay; type: functional, cell-based
T2 sequence (P30988 whole entry): T1 sequence (P30988 whole entry)

[5] = target: T1, Amylin receptor AMY3; CALCR/RAMP3; test: Agonist activity at human amylin receptor expressed in BHK570 cells co-expressing RAMP3 assessed as increase in intracellular cAMP concentration incubated for 3 hrs in presence of 10% FBS by CRE luciferase reporter gene assay; type: functional, cell-based
Calcitonin receptor [6] = target: T2, Calcitonin receptor; test: Agonist activity at human calcitonin receptor expressed in BHK570 cells assessed as increase in intracellular cAMP concentration incubated for 3 hrs in presence of 10% FBS by CRE luciferase reporter gene assay; type: functional, cell-based
[7] = Stability in pH 7.5 buffer assessed as lag time for fibril formation at 1 uM by Thioflavin T based fluorescence assay; type: physicochemical; conditions: pH 7.5, 1 µM
[8] = Stability in pH 7.5 buffer assessed as compound recovery at 1 uM by Thioflavin T based fluorescence assay; type: physicochemical; conditions: read-out: Drug recovery
[9] = Solubility in 100 mM glycylglycine buffer at pH 3.0 incubated for 18 hrs by UPLC analysis; type: physicochemical
[10] = Solubility in 100 mM glycylglycine buffer at pH 4.0 incubated for 18 hrs by UPLC analysis; type: physicochemical
[11] = Solubility in 100 mM bistrispropane buffer at pH 6.0 incubated for 18 hrs by UPLC analysis; type: physicochemical
[12] = Solubility in 100 mM glycylglycine buffer at pH 5.0 incubated for 18 hrs by UPLC analysis; type: physicochemical
[13] = Solubility in 100 mM bistrispropane buffer at pH 6.5 incubated for 18 hrs by UPLC analysis; type: physicochemical
[14] = Solubility in 100 mM bistrispropane buffer at pH 7.0 incubated for 18 hrs by UPLC analysis; type: physicochemical
[15] = Solubility in 100 mM bistrispropane buffer at pH 7.5 incubated for 18 hrs by UPLC analysis; type: physicochemical
[16] = Solubility in 100 mM bistrispropane buffer at pH 8.0 incubated for 18 hrs by UPLC analysis; type: physicochemical
[17] = target: T1, Amylin receptor AMY3; CALCR/RAMP3; test: Displacement of [125I]-labeled rat amylin from human amylin receptor expressed in BHK570 cell membranes co-expressing RAMP3 incubated for 120 mins by scintillation proximity assay
Calcitonin receptor [18] = target: T2, Calcitonin receptor; test: Displacement of [125I]-labeled human calcitonin from human calcitonin receptor expressed in BHK tkts13 cell membranes incubated for 1 hr by scintillation proximity assay
[19] = target: T3, Amylin receptor AMY3; CALCR/RAMP3 (Rattus norvegicus, UniProt P32214+Q9JJ73); test: Displacement of [125I]-labeled rat amylin from rat amylin receptor expressed in BHK tkts13 cell membranes co-expressing RAMP3 incubated for 120 mins by scintillation proximity assay
T3 sequence (P32214 whole entry): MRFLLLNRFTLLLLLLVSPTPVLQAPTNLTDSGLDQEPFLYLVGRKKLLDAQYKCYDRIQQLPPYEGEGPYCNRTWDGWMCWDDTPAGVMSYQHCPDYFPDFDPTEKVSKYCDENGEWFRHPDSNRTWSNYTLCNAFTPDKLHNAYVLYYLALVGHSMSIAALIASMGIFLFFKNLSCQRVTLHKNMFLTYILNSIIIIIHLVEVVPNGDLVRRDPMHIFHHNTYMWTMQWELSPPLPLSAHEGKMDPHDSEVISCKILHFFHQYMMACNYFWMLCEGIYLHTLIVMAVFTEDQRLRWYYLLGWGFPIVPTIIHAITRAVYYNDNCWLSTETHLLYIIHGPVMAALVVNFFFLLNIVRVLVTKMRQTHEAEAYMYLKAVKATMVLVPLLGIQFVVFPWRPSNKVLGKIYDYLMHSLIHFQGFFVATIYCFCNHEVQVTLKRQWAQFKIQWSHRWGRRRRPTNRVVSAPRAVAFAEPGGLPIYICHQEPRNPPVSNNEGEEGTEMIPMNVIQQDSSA
T3 sequence (Q9JJ73 whole entry): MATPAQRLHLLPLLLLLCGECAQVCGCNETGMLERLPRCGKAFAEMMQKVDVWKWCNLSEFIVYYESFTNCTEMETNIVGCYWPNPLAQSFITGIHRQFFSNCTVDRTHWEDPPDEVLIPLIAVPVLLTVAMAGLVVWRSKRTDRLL

[20] = target: T1, Amylin receptor AMY3; CALCR/RAMP3; test: Displacement of [125I]-labeled rat amylin from human amylin receptor expressed in BHK tkts13 whole cells co-expressing RAMP3 incubated for 60 mins by scintillation proximity assay; type: cell-based

EC50 [3] [nM]	EC50 (Calcitonin receptor [4]) [nM]	EC50 [5] [nM]	EC50 (Calcitonin receptor [6]) [nM]	Time [7] [h]	remaining at 1 µM [8] [%]	solubility at 18 h [9] [µM]	solubility at 18 h [10] [µM]	solubility at 18 h [11] [µM]	solubility at 18 h [12] [µM]	solubility at 18 h [13] [µM]	solubility at 18 h [14] [µM]	solubility at 18 h [15] [µM]	solubility at 18 h [16] [µM]	IC50 [17] [nM]	IC50 (Calcitonin receptor [18]) [nM]	IC50 [19] [nM]	IC50 [20] [nM]	Structure (SMILES)	Activity (Rattus norvegicus [1]) [%]	Activity (Rattus norvegicus [2]) [%]
0.018	0.015	0.004	0.002	> 45	100	≥ 200	≥ 200	≥ 200	≥ 200	≥ 200	≥ 200	≥ 200	≥ 200	0.037	0.024	0.022	–	CC(C)C[C@H](NC(=O)[C@H](C)NC(=O)[C@H](C)NC(=O)[C@@H](NC(=O)[C@H](CO)NC(=O)[C@H](CC(C)C)NC(=O)[C@H](CCC(=O)O)NC(=O)[C@H](CO)NC(=O)[C@H](C)NC(=O)CC[C@H](NC(=O)CCCCCCCCCCCCCCC(=O)O)C(=O)O)[C@@H](C)O)C(=O)NCC(=O)N[C@@H](CCCNC(=N)N)C(=O)N[C@@H](CC(C)C)C(=O)N[C@@H](CO)C(=O)N[C@@H](C)C(=O)N[C@@H](CCC(=O)O)C(=O)N[C@@H](CC(C)C)C(=O)N[C@@H](Cc1cnc[nH]1)C(=O)N[C@@H](CCC(=O)O)C(=O)N[C@@H](CC(C)C)C(=O)N[C@@H](C)C(=O)N[C@H](C(=O)N[C@@H](CC(C)C)C(=O)N1CCC[C@H]1C(=O)N[C@@H](CCCNC(=N)N)C(=O)N[C@H](C(=O)N[C@@H](CCC(=O)O)C(=O)N[C@H](C(=O)NCC(=O)N[C@@H](CO)C(=O)NCC(=O)N[C@@H](CO)C(=O)N1CCC[C@H]1C(N)=O)[C@@H](C)O)[C@@H](C)O)[C@@H](C)O ({C16 diacid-γGlu}-ASELSTAALGRLSAELHELATLPRTETGSGSP-NH2)	66	10
0.053	0.048	–	0.072	> 45	100	≥ 200	≥ 200	≥ 200	≥ 200	≥ 200	≥ 200	≥ 200	≥ 200	0.057	0.034	0.046	1.07	CC(C)C[C@H](NC(=O)[C@H](C)NC(=O)[C@H](C)NC(=O)[C@@H](NC(=O)[C@H](CO)NC(=O)[C@H](CC(C)C)NC(=O)[C@H](CCC(=O)O)NC(=O)[C@H](CO)NC(=O)[C@H](C)NC(=O)CC[C@H](NC(=O)CCCCCCCCCCCCCCCCCCC(=O)O)C(=O)O)[C@@H](C)O)C(=O)NCC(=O)N[C@@H](CCCNC(=N)N)C(=O)N[C@@H](CC(C)C)C(=O)N[C@@H](CO)C(=O)N[C@@H](C)C(=O)N[C@@H](CCC(=O)O)C(=O)N[C@@H](CC(C)C)C(=O)N[C@@H](Cc1cnc[nH]1)C(=O)N[C@@H](CCC(=O)O)C(=O)N[C@@H](CC(C)C)C(=O)N[C@@H](C)C(=O)N[C@H](C(=O)N[C@@H](CC(C)C)C(=O)N1CCC[C@H]1C(=O)N[C@@H](CCCNC(=N)N)C(=O)N[C@H](C(=O)N[C@@H](CCC(=O)O)C(=O)N[C@H](C(=O)NCC(=O)N[C@@H](CO)C(=O)NCC(=O)N[C@@H](CO)C(=O)N[C@@H](Cc1cnc[nH]1)C(N)=O)[C@@H](C)O)[C@@H](C)O)[C@@H](C)O ({C20 diacid-γGlu}-ASELSTAALGRLSAELHELATLPRTETGSGSH-NH2)	–	–
